Common to all, as to assay type: biochemical
The target of one assay is T1, PIP4K2B (Homo sapiens, UniProt P78356).
T1 construct: made in house; host or cells: E. coli
T1 sequence (P78356 1-416): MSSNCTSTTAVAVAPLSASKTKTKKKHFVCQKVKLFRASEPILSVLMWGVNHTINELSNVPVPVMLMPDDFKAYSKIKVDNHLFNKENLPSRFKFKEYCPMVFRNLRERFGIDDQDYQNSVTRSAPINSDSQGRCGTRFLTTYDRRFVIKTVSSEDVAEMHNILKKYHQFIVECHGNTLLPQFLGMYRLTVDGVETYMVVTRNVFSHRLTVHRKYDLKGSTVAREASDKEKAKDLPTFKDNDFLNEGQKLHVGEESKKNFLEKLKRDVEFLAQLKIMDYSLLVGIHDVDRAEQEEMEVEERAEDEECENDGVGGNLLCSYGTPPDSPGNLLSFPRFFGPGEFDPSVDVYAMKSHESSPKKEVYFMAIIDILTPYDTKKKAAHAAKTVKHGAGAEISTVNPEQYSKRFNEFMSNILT
As to the kind of experiment: Trans-FI P kinase assay PIP4K2B (PIP4KtypeIIB inhibition assay). To be noted: compounds listed under IC50 bin headings; 100 uM GTP; read-out: Trans-FI P kinase assays: PIP4K2B IC50. The gist of the method:
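GST-tagged human PIP4K2B (5 nM, E. coli-expressed) preincubated 1 h at 27 C with compound (top 4.8 uM, 5% DMSO), then reacted 2 h with 100 uM GTP and 80 uM PI5P/DOPE vesicles in HEPES pH 7.3, MgCl2, Triton X-100. GDP detected by Transcreener FI fluorescence via calibration curve; IC50 from % activity vs log[inhibitor].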

In assay [1] the target is T2, PIP4K 2A (Homo sapiens, UniProt P48426).
T2 sequence (P48426 1-406): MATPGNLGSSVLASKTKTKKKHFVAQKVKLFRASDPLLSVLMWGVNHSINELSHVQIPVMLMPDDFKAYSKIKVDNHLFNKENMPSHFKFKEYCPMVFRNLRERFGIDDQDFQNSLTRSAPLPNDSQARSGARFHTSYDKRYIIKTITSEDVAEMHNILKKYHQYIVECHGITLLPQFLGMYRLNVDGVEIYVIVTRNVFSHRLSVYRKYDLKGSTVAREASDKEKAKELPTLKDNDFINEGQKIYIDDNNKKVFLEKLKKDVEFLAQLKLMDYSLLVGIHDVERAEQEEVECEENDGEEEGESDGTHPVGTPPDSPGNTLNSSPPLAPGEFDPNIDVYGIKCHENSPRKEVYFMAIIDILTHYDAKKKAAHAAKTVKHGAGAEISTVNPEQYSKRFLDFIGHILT
As to the kind of experiment: Kinase Assay PIP4K2 A (PIP4KtypeIIA inhibition assay). The arrangement: made in house; host or cells: E. coli. To be noted: compounds listed under IC50 bin headings. From the text:
GST tagged PIP4KtypeIIA and B enzymes were overexpressed in E. Coli and purified to >80% homogeneity. Phosphatidyl inositol-5-phosphate (PI5P, Cat. #850152, Avanti Polar Lipids Inc.) was used as the lipid substrate and phosphatidyl ethanolamine (DOPE 18:1, Cat. #850725, Avanti Polar Lipids Inc.) was used as the carrier lipid for assays. Ultrapure ATP and GTP was purchased from Bellbrooke Labs. ADP Glo reagents were obtained from Promega. Transcreener FI reagent was obtained from Bellbrooke labs.
Enzyme preparation: GST-tagged PIP4KtypeIIA (5 uL, 1.43 mg/mL) was diluted (1:10) to 50 uL using HNE buffer. From the 1:10 diluted stock, a 6.4 uL aliquot was diluted further to 5 mL using HNE buffer to yield 5× enzyme stock (2.5 nM).
Lipid Preparation: In a 10 mL pyrex glass vial, 1 ug of PI5P and 1 ug of DOPE were suspended in 2.5 mL of HEPES buffer mix and 2.5 mL of H:E buffer. The contents were mixed and sonicated for 3 min to yield a translucent lipid stock.
Compound Preparation: Compounds were stored as 5 mM stocks in neat DMSO as room temperature in glass vials. 5 mM stocks were diluted to 2 mM and then serially diluted (3×) in neat DMSO in 96 well polypropylene plates. From the serially diluted stocks, 3 uL was delivered into 250 uL of 25% DMSO (in water) to generate 5× compound stocks. Typically, the highest compound conc. was 24 uM.
The assay volume was kept at 25 uL. To each well of the reaction plate, 10 uL of lipid stock (1:1 ratio PI5P:DOPE) was delivered. This was followed by the addition of 5 uL of compound in 25% DMSO. Then, to each well, 5 uL of 2.5 nM (5×) typeIIA enzyme was delivered. The contents were mixed well and incubated for 1 h at 27 C. After 1 h, reaction was initiated by adding 5 uL of 50 uM ATP and the contents were mixed well with a multi-channel pipetteman. The final concentration of the reagents are as follows: 50 mM HEPES, pH 7.3, 10 mM MgCl2, 20 mM NaCl, 0.01% v/v triton-X100, 5% DMSO, 10 uM ATP, 80 uM (2 ug) PI5P, 2 ug DOPE, and 0.5 nM PIP4KIIA. Typically, the highest conc. of compounds was 4.8 uM and the lowest conc. was 0.
After 1 hr, the reaction was quenched by adding 25 uL of ADP Glo reagent. The contents were incubated for 1 hr. Afterwards, 50 uL of kinase detection reagent was delivered. The contents were incubated for another hour. The luminescence was read using Molecular Devices Paradigm plate reader. […] The blanks were averaged and subtracted from all other wells. Using a calibration curve, RLU was converted to uM ADP (product). IC50 was calculated by plotting the residual activity (expressed as % No inhibitor control) vs. log [Inh. conc.]

The target in assay [2] is T2, PIP4K 2A. As to the kind of experiment: ADP-glo kinase assay PIP4K 2A. To be noted: compounds listed under IC50 bin headings. Set-up: 4 nM PIP4K2A (full length protein, SignalChem); purchased SignalChem. The gist of the method: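 Full-length PIP4K2A was pre-incubated 15 min at RT with compound in 20 mM MOPS pH 7.2, 25 mM MgCl2, 0.005% Tween 20. The enzyme mix held 4 nM kinase and 100 μM PI(5)P diC8, and ATP was added from a 60 μM solution. After 1 h at RT, ADP-Glo luminescence gave % inhibition versus DMSO, fitted to IC50 over 10 threefold dilutions.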
On the technique in general: In ADP-Glo the light output rises with the ADP produced.

With `CC1Oc2cc(C(=O)N(C)C)ccc2-c2cnc(Nc3cccnc3)cc21` (centres unmarked) [Example 31, N,N,5-trimethyl-3-(pyridin-3-ylamino)-5H-chromeno[4,3-c]pyridine-8-carboxamide], the concentration for half-maximal inhibition (IC50) (usually the point on the concentration scale where inhibition reaches its midpoint) on PIP4K2B lay within 100 to 1000 nM; at PIP4K 2A [1], 1 to 10 nM; at PIP4K 2A [2], 1 to 10 nM.

In the case of `CC1Oc2cc(C(=O)N(C)C)ccc2-c2cnc(Nc3cncc(N4CCCC4=O)c3)cc21` (centres unmarked) [Example 32, N,N,5-trimethyl-3-((5-(2-oxopyrrolidin-1-yl)pyridin-3-yl)amino)-5H-chromeno[4,3-c]pyridine-8-carboxamide], the IC50 at PIP4K2B was 10 to 100 nM; against PIP4K 2A [1], at most 1 nM; against PIP4K 2A [2] it was 1 to 10 nM.

For `CC1Oc2cc(C(=O)N(C)C)ccc2-c2cnc(Nc3cnc4c(c3)N3C(=O)CC[C@H]3CO4)cc21` (stereo partly drawn) [Example 33, N,N,5-trimethyl-3-(((S)-9-oxo-6a,7,8,9-tetrahydro-6H-pyrido[2,3-b]pyrrolo[1,2-d][1,4]oxazin-2-yl)amino)-5H-chromeno[4,3-c]pyridine-8-carboxamide], the 50% inhibitory concentration (IC50) at PIP4K2B is 1 to 10 nM; against PIP4K 2A [1], at most 1 nM; against PIP4K 2A [2] it was 1 to 10 nM.

Consider `CN(C)C(=O)c1ccc2c(c1)OC(C1CC1)c1cc(Nc3cccnc3)ncc1-2` (centres unmarked) [Example 34, 5-cyclopropyl-N,N-dimethyl-3-(pyridin-3-ylamino)-5H-chromeno[4,3-c]pyridine-8-carboxamide], for which the half-inhibitory concentration (IC50) on PIP4K2B fell in the range of 10 to 100 nM; on PIP4K 2A [1] it was 1 to 10 nM; against PIP4K 2A [2], 1 to 10 nM.

Take `CN(C)C(=O)c1ccc2c(c1)OC(C1CC1)c1cc(Nc3cncc(N4CCCC4=O)c3)ncc1-2` (centres unmarked) [Example 35, 5-cyclopropyl-N,N-dimethyl-3-((5-(2-oxopyrrolidin-1-yl)pyridin-3-yl)amino)-5H-chromeno[4,3-c]pyridine-8-carboxamide]: the IC50 on PIP4K2B was 1 to 10 nM; against PIP4K 2A [1], at most 1 nM; on PIP4K 2A [2] it was 1 to 10 nM.

On to `CN(C)C(=O)c1ccc2c(c1)OC(C1CC1)c1cc(Nc3cnc4c(c3)N3C(=O)CC[C@H]3CO4)ncc1-2` (stereo partly drawn) [Example 36, 5-cyclopropyl-N,N-dimethyl-3-(((S)-9-oxo-6a,7,8,9-tetrahydro-6H-pyrido[2,3-b]pyrrolo[1,2-d][1,4]oxazin-2-yl)amino)-5H-chromeno[4,3-c]pyridine-8-carboxamide], for which the IC50 at PIP4K2B was 1 to 10 nM; against PIP4K 2A [1], at most 1 nM; against PIP4K 2A [2] it was at most 1 nM.

With `CC1c2cc(Nc3cccnc3)ncc2-c2ccc(C(=O)N(C)C)cc2N1C` (centres unmarked) [Example 37, N,N,5,6-tetramethyl-3-(pyridin-3-ylamino)-5,6-dihydrobenzo[c][2,6]naphthyridine-8-carboxamide], the half-inhibitory concentration (IC50) on PIP4K2B lay in the range of 100 to 1000 nM; on PIP4K 2A [1] it was 1 to 10 nM; on PIP4K 2A [2], 10 to 100 nM.

For the molecule `CC1Oc2cc(N3CCCC3=O)ccc2-c2cnc(Nc3cccnc3)cc21` (centres unmarked) [Example 38, 1-(5-methyl-3-(pyridin-3-ylamino)-5H-chromeno[4,3-c]pyridin-8-yl)pyrrolidin-2-one], the figures for the IC50 at PIP4K2B, against PIP4K 2A [1] and against PIP4K 2A [2] were 100 to 1000 nM, 1 to 10 nM and 1 to 10 nM, respectively.

With `CC1Oc2cc(N3CCCC3=O)ccc2-c2cnc(Nc3cncc(C4(C#N)CC4)c3)cc21` (centres unmarked) [Example 39, 1-(5-((5-methyl-8-(2-oxopyrrolidin-1-yl)-5H-chromeno[4,3-c]pyridin-3-yl)amino)pyridin-3-yl)cyclopropane-1-carbonitrile], the half-inhibitory concentration (IC50) is 10 to 100 nM at PIP4K2B and at most 1 nM at PIP4K 2A [1].

Regarding `CC1Oc2cc(N3CCCC3=O)ccc2-c2cnc(Nc3cnc4c(c3)N3C(=O)CC[C@H]3CO4)cc21` (stereo partly drawn) [Example 40, (6aS)-2-((5-methyl-8-(2-oxopyrrolidin-1-yl)-5H-chromeno[4,3-c]pyridin-3-yl)amino)-6,6a,7,8-tetrahydro-9H-pyrido[2,3-b]pyrrolo[1,2-d][1,4]oxazin-9-one], the IC50 is 1 to 10 nM on PIP4K2B, at most 1 nM at PIP4K 2A [1] and at most 1 nM on PIP4K 2A [2].

For `CC1Oc2cc(N3CCCC3=O)ccc2-c2cnc(Nc3cnc4c(c3)N3[C@H](CO4)CN(C)S3(=O)=O)cc21` (stereo partly drawn) [Example 187, 1-(5-methyl-3-(((S)-2-methyl-1,1-dioxido-2,3,3a,4-tetrahydropyrido[2,3-b][1,2,5]thiadiazolo[2,3-d][1,4]oxazin-8-yl)amino)-5H-chromeno[4,3-c]pyridin-8-yl)pyrrolidin-2-one], the IC50 on PIP4K2B was 100 to 1000 nM; at PIP4K 2A [1], 10 to 100 nM.

Take `C[C@@H]1Oc2cc(N3CCCC3=O)ccc2-c2cnc(Nc3cnc4c(c3)N3C(=O)CC[C@H]3CO4)cc21` [Example 193, (S)-2-(((S)-5-methyl-8-(2-oxopyrrolidin-1-yl)-5H-chromeno[4,3-c]pyridin-3-yl)amino)-6,6a,7,8-tetrahydro-9H-pyrido[2,3-b]pyrrolo[1,2-d][1,4]oxazin-9-one]: the IC50 against PIP4K 2A [1] and at PIP4K 2A [2] was at most 1 nM throughout.

As for `Cc1conc1-c1ccc2c(c1)OC(C)(C)c1cc(Nc3cnc4c(c3)N3C(=O)CC[C@H]3CO4)ncc1-2` [Example 209, (S)-2-((5,5-dimethyl-8-(4-methylisoxazol-3-yl)-5H-chromeno[4,3-c]pyridin-3-yl)amino)-6,6a,7,8-tetrahydro-9H-pyrido[2,3-b]pyrrolo[1,2-d][1,4]oxazin-9-one], the results for the concentration for half-maximal inhibition (IC50) on PIP4K2B and against PIP4K 2A [1] were 1 to 10 nM and at most 1 nM, respectively.

In the case of `Cn1cnnc1-c1ccc2c(c1)OC(C)(C)c1nc(Nc3cnc4c(c3)N3C(=O)CC[C@H]3CO4)ncc1-2` [Example 210, (S)-2-((5,5-dimethyl-8-(4-methyl-4H-1,2,4-triazol-3-yl)-5H-chromeno[3,4-d]pyrimidin-3-yl)amino)-6,6a,7,8-tetrahydro-9H-pyrido[2,3-b]pyrrolo[1,2-d][1,4]oxazin-9-one], at PIP4K 2A [1], the IC50 was at most 1 nM.

Take `Cn1cnnc1-c1ccc2c(c1)OC(C)(C)c1cc(Nc3cnc4c(c3)N3C(=O)CC[C@H]3CO4)ncc1-2` [Example 211, (S)-2-((5,5-dimethyl-8-(4-methyl-4H-1,2,4-triazol-3-yl)-5H-chromeno[4,3-c]pyridin-3-yl)amino)-6,6a,7,8-tetrahydro-9H-pyrido[2,3-b]pyrrolo[1,2-d][1,4]oxazin-9-one]: the 50% inhibitory concentration (IC50) at PIP4K2B is 1 to 10 nM; against PIP4K 2A [1], at most 1 nM.

These data come from US11584763B2, “Chromenopyridine derivatives as phosphatidylinositol phosphate kinase inhibitors” (HIBERCELL, INC., priority 2017, dated 2023).
